The source of these data is publication PMC2099433, “The binding site for neohesperidin dihydrochalcone at the human sweet taste receptor” (BMC Structural Biology, 2007).

In experiment [1] the target is T1, hTAS1R2/hTAS1R3 (Homo sapiens, UniProt Q7RTX0+Q8TE23).
T1 construct: expressed in transfected cells; host or cells: HEK293T cells stably expressing G16Gust44
T1 sequence (Q8TE23 20-839): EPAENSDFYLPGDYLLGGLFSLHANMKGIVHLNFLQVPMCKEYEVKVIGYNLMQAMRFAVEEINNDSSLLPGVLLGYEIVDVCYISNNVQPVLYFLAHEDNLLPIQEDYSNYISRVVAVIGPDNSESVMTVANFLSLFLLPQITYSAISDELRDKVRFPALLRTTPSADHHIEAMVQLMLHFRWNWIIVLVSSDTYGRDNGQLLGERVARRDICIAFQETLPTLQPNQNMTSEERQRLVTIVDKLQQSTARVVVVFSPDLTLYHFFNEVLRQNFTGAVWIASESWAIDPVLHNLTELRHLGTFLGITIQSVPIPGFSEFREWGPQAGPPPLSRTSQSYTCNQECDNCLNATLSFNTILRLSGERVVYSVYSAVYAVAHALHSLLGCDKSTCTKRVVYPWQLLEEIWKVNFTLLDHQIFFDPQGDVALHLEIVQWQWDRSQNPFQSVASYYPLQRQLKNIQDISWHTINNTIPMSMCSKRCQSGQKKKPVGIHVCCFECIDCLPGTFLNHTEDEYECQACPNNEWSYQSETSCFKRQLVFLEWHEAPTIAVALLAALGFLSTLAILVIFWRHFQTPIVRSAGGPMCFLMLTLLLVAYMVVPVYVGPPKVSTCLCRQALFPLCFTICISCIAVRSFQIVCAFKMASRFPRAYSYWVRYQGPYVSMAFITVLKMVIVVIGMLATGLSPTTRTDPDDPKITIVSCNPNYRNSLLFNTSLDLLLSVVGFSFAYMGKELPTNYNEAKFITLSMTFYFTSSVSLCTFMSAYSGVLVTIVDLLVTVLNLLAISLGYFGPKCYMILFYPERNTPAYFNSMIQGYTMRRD
T1 sequence (Q7RTX0 21-852): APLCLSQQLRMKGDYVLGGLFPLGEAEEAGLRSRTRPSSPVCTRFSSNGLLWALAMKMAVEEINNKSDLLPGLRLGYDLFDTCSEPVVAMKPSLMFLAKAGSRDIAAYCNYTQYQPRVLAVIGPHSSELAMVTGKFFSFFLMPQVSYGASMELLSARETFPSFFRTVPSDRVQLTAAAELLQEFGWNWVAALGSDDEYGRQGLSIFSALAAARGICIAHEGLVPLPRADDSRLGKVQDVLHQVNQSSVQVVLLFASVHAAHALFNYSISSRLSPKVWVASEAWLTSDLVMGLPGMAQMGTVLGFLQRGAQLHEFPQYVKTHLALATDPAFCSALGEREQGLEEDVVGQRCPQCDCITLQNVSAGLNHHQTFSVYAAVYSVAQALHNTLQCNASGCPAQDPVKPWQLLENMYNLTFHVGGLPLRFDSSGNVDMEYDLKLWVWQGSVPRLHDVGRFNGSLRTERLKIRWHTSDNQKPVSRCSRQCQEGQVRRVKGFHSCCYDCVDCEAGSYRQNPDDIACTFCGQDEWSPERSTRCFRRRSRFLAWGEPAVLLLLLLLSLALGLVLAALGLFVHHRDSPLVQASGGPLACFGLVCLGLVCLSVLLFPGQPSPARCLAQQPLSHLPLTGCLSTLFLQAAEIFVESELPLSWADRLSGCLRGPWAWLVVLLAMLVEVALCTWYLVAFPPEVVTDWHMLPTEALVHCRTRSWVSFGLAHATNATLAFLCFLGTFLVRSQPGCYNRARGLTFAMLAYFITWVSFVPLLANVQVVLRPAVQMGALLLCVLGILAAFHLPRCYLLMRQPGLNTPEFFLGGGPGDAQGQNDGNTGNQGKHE
Nature of the experiment: Calcium response (FLIPR) of HEK293T-G16Gust44 cells, wild type receptor. To be noted: for EC50 / Emax: wt receptor; for EC50: average ± SD, at least three experiments; for Emax: read-out: maximal signal (% of wt). Format: cell-based. An excerpt: In order to elucidate the putative binding site for NHDC, we cotransfected mixtures of plasmid DNAs for the rat and human TAS1R2 and TAS1R3 receptor subunits in HEK293T cells stably expressing the chimeric G-protein G16Gust44 and measured cellular calcium responses by fluorometry following bath application of various sweet tasting compounds. […].
The cDNAs for TAS1Rs tagged at the C-terminus with the herpes simplex virus glycoprotein D (HSV) were transiently transfected into HEK293T cells stably expressing the chimeric G-protein subunit G16Gust44 [44] using Lipofectamine 2000 (Invitrogen, Carlsbad, CA) according to the manufacturer's protocol. 3–4 hours after transfection, DMEM was replaced by low-glucose DMEM supplemented with GlutaMAX and 10% dialyzed FBS (Invitrogen, Carlsbad, CA). 24 h post transfection, cells were loaded for 1 h with the calcium sensitive dye Fluo4-AM (2 μg/ml in DMEM, Molecular Probes, Carlsbad, CA). Cells were washed 3x in solution C1 (130 mM NaCl, 5 mM KCl, 10 mM Hepes, 2 mM CaCl2, and 5 mM Glucose, pH 7,4). We monitored calcium mobilization following receptor stimulation with sweet tastants by an automated fluorometric imaging plate reader (FLIPR, Molecular Devices, Sunnyvale, CA). Compounds used as stimuli (Sigma-Aldrich, St. Louis, MO; Merck, Whitehouse Station, NJ) were dissolved in C1 solution. All data were collected from at least three independent experiments carried out in duplicate. The obtained calcium signals were corrected for the response of mock transfected cells and normalized to the fluorescence of cells prior to the application of the stimulus using ΔF/F = (F-F0)/F0. […]

In experiment [2] the target is T1, hTAS1R2/hTAS1R3. The experiment is described as follows: Concentration-response curves of sweeteners in the presence of different lactisole concentrations. Format: cell-based. To be noted: for increase of EC50 value by lactisole: presence vs absence of lactisole; for Hill slope: constant over tested lactisole concentrations.

Where a SMILES comes first, the peptide text is derived from it.

A word on the EC50: it is the concentration at which the effect is half-maximal. What is called Hill coefficient is the slope factor of the fitted curve. Take `COc1ccc(CCC(=O)c2c(O)cc(O[C@@H]3O[C@H](CO)[C@@H](O)[C@H](O)[C@H]3O[C@@H]3O[C@@H](C)[C@H](O)[C@@H](O)[C@H]3O)cc2O)cc1O` [NHDC, neohesperidin dihydrochalcone]: the receptor activation entry in experiment [1] (human sweet taste receptor) is “activates”. For the same compound, the values for the EC50 in experiment [1] and in experiment [2] (0.0 μM lactisole) were 0.1 ± 0.06 mM and 0.2 ± 0.1 mM, respectively. Moreover, the Emax in experiment [1] worked out at 100%. Besides, the Hill coefficient turned out to be 0.8 in experiment [2] (0.0 μM lactisole), 1.2 in experiment [2] (50 μM lactisole) and 1.5 in experiment [2] (100 μM lactisole). Besides, the “increase of EC50 value by lactisole” value in experiment [2] was “~ fourfold”.

On to `O=S(=O)(O)NC1CCCCC1` [cyclamate], for which the EC50 in experiment [1] was 1.9 ± 0.1 mM; in experiment [2] (0.0 μM lactisole), 2.2 ± 0.3 mM. Moreover, the Hill coefficient in experiment [2] (50 μM lactisole) was found to be 2.5. Besides, the “increase of EC50 value by lactisole” value in experiment [2] is on record as “~ fourfold”.

As for `COC(=O)[C@H](Cc1ccccc1)NC(=O)[C@@H](N)CC(=O)O` [aspartame] (HELM PEPTIDE1{D.F.[CO[*:1]]}$$$$V2.0), in experiment [1], the EC50 was determined as 1.3 ± 0.1 mM and the Emax stood at 100%. In addition, the EC50 in experiment [2] (0.0 μM lactisole) came to 0.5 ± 0.1 mM. Moreover, the Hill slope in experiment [2] was ~ 2.

For `CC1=CC(=O)NS(=O)(=O)O1` [acesulfame K], in experiment [2] (0.0 μM lactisole), the EC50 is 0.12 ± 0.04 mM. The Hill slope in experiment [2] is reported as ~ 2.
